PubChem BioAssay (NCI)
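Five concentrations, 48 hours, 96-well plates. At the GI50, growth is halved. TGI is the concentration that stops growth completely.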

How the values were obtained:
Test in all cases: NCI anticancer screen, dose series, 48 h
ACHN renal = test system: ACHN renal
SW-620 colon = test system: SW-620 colon
OVCAR-4 ovarian = test system: OVCAR-4 ovarian
HCT-116 colon = test system: HCT-116 colon
UACC-257 melanoma = test system: UACC-257 melanoma
MCF7 breast = test system: MCF7 breast
KM12 colon = test system: KM12 colon
SK-OV-3 ovarian = test system: SK-OV-3 ovarian
NCI-H522 lung = test system: NCI-H522 lung
SK-MEL-5 melanoma = test system: SK-MEL-5 melanoma

N#C/C(=C\c1ccc(Br)cc1)n1nnc2ccccc21
GI50 (ACHN renal): 0.521 µM
TGI (ACHN renal): 2.01 µM
GI50 (SW-620 colon): 0.318 µM
TGI (SW-620 colon): 1.57 µM
GI50 (OVCAR-4 ovarian): 1.5 µM
TGI (OVCAR-4 ovarian): 5.25 µM
GI50 (HCT-116 colon): 0.518 µM
TGI (HCT-116 colon): 1.93 µM
GI50 (UACC-257 melanoma): 1.19 µM
TGI (UACC-257 melanoma): 4.26 µM
GI50 (MCF7 breast): 0.303 µM
TGI (MCF7 breast): 6.2 µM
GI50 (KM12 colon): 0.512 µM
TGI (KM12 colon): 2.33 µM
GI50 (SK-OV-3 ovarian): 5.11 µM
TGI (SK-OV-3 ovarian): 22.1 µM
GI50 (NCI-H522 lung): 0.191 µM
TGI (NCI-H522 lung): 1.25 µM
GI50 (SK-MEL-5 melanoma): 0.999 µM
TGI (SK-MEL-5 melanoma): 2.32 µM

COc1cc(/C=C2\C(=O)Nc3cccc(Cl)c32)cc(OC)c1OC
GI50 (ACHN renal): 53.2 µM
TGI (ACHN renal): > 100 µM
GI50 (SW-620 colon): > 100 µM
TGI (SW-620 colon): > 100 µM
GI50 (OVCAR-4 ovarian): > 100 µM
TGI (OVCAR-4 ovarian): > 100 µM
GI50 (HCT-116 colon): > 100 µM
TGI (HCT-116 colon): > 100 µM
GI50 (UACC-257 melanoma): > 100 µM
TGI (UACC-257 melanoma): > 100 µM
GI50 (MCF7 breast): > 100 µM
TGI (MCF7 breast): > 100 µM
GI50 (KM12 colon): > 100 µM
TGI (KM12 colon): > 100 µM
GI50 (SK-OV-3 ovarian): > 100 µM
TGI (SK-OV-3 ovarian): > 100 µM
GI50 (NCI-H522 lung): > 100 µM
TGI (NCI-H522 lung): > 100 µM
GI50 (SK-MEL-5 melanoma): > 100 µM
TGI (SK-MEL-5 melanoma): > 100 µM

COc1ccc2c(c1)C1(C(=O)N2)C(C#N)=C(c2ccccc2)Nc2c1c(-c1ccccc1)nn2-c1ccccc1 (stereo not given)
GI50 (ACHN renal): 6.16 µM
TGI (ACHN renal): 19.4 µM
GI50 (SW-620 colon): 1.98 µM
TGI (SW-620 colon): 4.23 µM
GI50 (OVCAR-4 ovarian): 1.77 µM
TGI (OVCAR-4 ovarian): 3.5 µM
GI50 (HCT-116 colon): 1.66 µM
TGI (HCT-116 colon): 3.02 µM
GI50 (UACC-257 melanoma): 16 µM
TGI (UACC-257 melanoma): 31.5 µM
GI50 (MCF7 breast): 2.09 µM
TGI (MCF7 breast): 6.79 µM
GI50 (KM12 colon): 2.66 µM
TGI (KM12 colon): 7.26 µM
GI50 (SK-OV-3 ovarian): 2.08 µM
TGI (SK-OV-3 ovarian): 5.14 µM
GI50 (NCI-H522 lung): 3.75 µM
TGI (NCI-H522 lung): 18.3 µM
GI50 (SK-MEL-5 melanoma): 2.4 µM
TGI (SK-MEL-5 melanoma): 6.62 µM

COc1ccc(N(/C=C/C(=O)C(F)(F)F)CC(=O)c2ccc(Cl)c(Cl)c2)cc1
GI50 (ACHN renal): 12.2 µM
TGI (ACHN renal): 25.1 µM
GI50 (SW-620 colon): 27 µM
TGI (SW-620 colon): > 100 µM
GI50 (OVCAR-4 ovarian): 32 µM
TGI (OVCAR-4 ovarian): > 100 µM
GI50 (HCT-116 colon): 9.94 µM
TGI (HCT-116 colon): 21.5 µM
GI50 (UACC-257 melanoma): 16.7 µM
TGI (UACC-257 melanoma): 35.4 µM
GI50 (MCF7 breast): 5.11 µM
TGI (MCF7 breast): 28.9 µM
GI50 (KM12 colon): 11.6 µM
TGI (KM12 colon): 37.3 µM
GI50 (SK-OV-3 ovarian): 20.1 µM
TGI (SK-OV-3 ovarian): 39.7 µM
GI50 (NCI-H522 lung): 19.4 µM
TGI (NCI-H522 lung): 43.7 µM
GI50 (SK-MEL-5 melanoma): 7 µM
TGI (SK-MEL-5 melanoma): 20.4 µM

COc1cc2c(cc1OCCCCOc1ccc(-c3nc4ccccc4s3)cc1)N=C[C@@H]1CCCN1C2=O
GI50 (ACHN renal): 0.742 µM
TGI (ACHN renal): 2.59 µM
GI50 (SW-620 colon): 0.426 µM
TGI (SW-620 colon): 1.77 µM
GI50 (OVCAR-4 ovarian): 1.24 µM
TGI (OVCAR-4 ovarian): 9.02 µM
GI50 (HCT-116 colon): 0.511 µM
TGI (HCT-116 colon): 1.62 µM
GI50 (UACC-257 melanoma): 2.63 µM
TGI (UACC-257 melanoma): 7.06 µM
GI50 (MCF7 breast): 0.625 µM
TGI (MCF7 breast): 4.34 µM
GI50 (SK-OV-3 ovarian): 1.92 µM
TGI (SK-OV-3 ovarian): 5.08 µM
GI50 (NCI-H522 lung): 0.565 µM
TGI (NCI-H522 lung): 1.93 µM
GI50 (SK-MEL-5 melanoma): 0.667 µM
TGI (SK-MEL-5 melanoma): 1.85 µM

Cc1cc(=O)oc2cc(OS(C)(=O)=O)ccc12
TGI (ACHN renal): > 100 µM
TGI (SW-620 colon): > 100 µM
TGI (OVCAR-4 ovarian): > 100 µM
TGI (HCT-116 colon): > 100 µM
TGI (UACC-257 melanoma): > 100 µM
TGI (MCF7 breast): > 100 µM
TGI (NCI-H522 lung): > 100 µM
TGI (SK-MEL-5 melanoma): > 100 µM

O=[N+]([O-])c1ccc2nc3ccccc3cc2c1
TGI (ACHN renal): 14.9 µM
TGI (SW-620 colon): 14.3 µM
TGI (OVCAR-4 ovarian): 10.4 µM
TGI (HCT-116 colon): 10.5 µM
TGI (UACC-257 melanoma): 5.86 µM
TGI (MCF7 breast): > 100 µM
TGI (SK-OV-3 ovarian): 20.7 µM
TGI (NCI-H522 lung): 9.79 µM
TGI (SK-MEL-5 melanoma): 14.4 µM
